This note sets out measurements from patent US12612412B2, “Antiviral heterocyclic compounds” (Enanta Pharmaceuticals, Inc., priority 2021, dated 2026).

Experiment [1] deals with genotype A, "Long" strain RSV. Nature of the experiment: RSV-A assay (CPE protection in Hep-2 cells, ATPlite readout). It counts as cell-based, Human respiratory syncytial virus (HRSV). The settings on record: MOI 0.1, CPE protection. In outline: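 Hep-2 cells (8,000/well) were treated with 2-fold serial compound dilutions in duplicate and infected with RSV at MOI 0.1. After 5 days, protection from cytopathic effect was measured as cell viability by ATPlite luminescence, and EC50 values were derived.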
(Cellular ATP, detected with luciferase, serves as a proxy for viable cell number.)

Experiment [2] concerns HMPV clinical isolate TN/1501/A1. Briefly: HMPV antiviral assay Method-B (clinical isolate TN/1501/A1 in LLC-MK2 cells, ATP-Lite readout). It counts as cell-based, Human metapneumovirus (HMPV). The settings on record: human metapneumovirus, LLC-MK2, 144 h, hMPV WT1501 (clinical isolate TN/1501/A1), 6 days. Summed up: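 LLC-MK2 cells infected in suspension with TN/1501/A1 at MOI 0.014 in serum-free medium with 2 μg/mL TPCK-trypsin (final), incubated 6 days at 37° C. Compounds tested in duplicate, 10-point 3-fold dilutions from 10 μM. Cell health read by ATP-Lite luminescence, normalised to virus-only and cells-only controls; EC50 by four-parameter logistic fit.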

[3] abbreviates: human respiratory syncytial virus, genotype A “Long” strain RSV, read-out: Human RSV-A (“Long”).
Setting [4] is: human respiratory syncytial virus, RSV-A Long strain, read-out: Human RSV-A (“Long”) EC50.

Molecules are shown by their SMILES. Where two headings read alike, the source gives them in different places.

`COc1cc(C(=O)NC[C@](O)(c2cc3c(c(-c4ccc(C(F)(F)F)c(Cl)c4)n2)OC[C@]3(C)C(N)=O)C(F)(F)F)cc2cc(Cl)c(C)nc12` [Example 581]: the EC50 in experiment [1] (setting [3]) was under 200 nM; in experiment [2] it was over 500 nM.

Take `COc1cc(C(=O)NC[C@](O)(c2cc3c(c(-c4cc(F)c(F)c(Cl)c4)n2)OC[C@]3(C)C(N)=O)C(F)(F)F)cc2cn(C3CC3)nc12` [Example 782]: the EC50 in experiment [1] (setting [3]) was under 200 nM; in experiment [2] it was under 500 nM.

On to `Cc1cnc2c(Cl)cc(C(=O)NC[C@](O)(c3cc4c(c(-c5cc(F)c(F)c(Cl)c5)n3)OC[C@]4(C)C(N)=O)C3CC3)cc2c1` [Example 792], for which the EC50 in experiment [1] (setting [3]) was under 200 nM; in experiment [2], under 500 nM.

Turning to `COc1cc(C(=O)NC[C@](O)(c2cc3c(c(-c4ccc(F)cc4)n2)OC[C@]3(C(N)=O)C(F)F)C2CC2)cc2cc(Cl)c(C)nc12` [Example 1030], the EC50 in experiment [1] (setting [4]) is under 200 nM; in experiment [2], over 500 nM.

With `COc1cc(C(=O)NC[C@](O)(c2cc3c(c(-c4ccccc4-c4ccccc4)n2)OC[C@]3(C)C(N)=O)C(F)(F)F)cc2cn(C3CC3)nc12` [Example 1250], the EC50 is under 200 nM in experiment [1] (setting [4]) and over 500 nM in experiment [2].

On to `COc1cc(C(=O)NC[C@](O)(c2cc3c(c(-c4ccc(F)c(Cl)c4)n2)OC[C@]3(C)C(N)=O)C2(F)CC2)cc2cc(Cl)c(C)nc12` [Example 719], for which the EC50 was under 200 nM in experiment [1] (setting [3]) and under 500 nM in experiment [2].

On to `COc1cc(C(=O)NC[C@](O)(c2cc3c(c(-c4cc(F)c(F)cc4Cl)n2)OC[C@]3(C)C(N)=O)C(F)(F)F)cc2cn(C3CC3)nc12` [Example 654], for which the EC50 is under 200 nM in experiment [1] (setting [3]) and under 500 nM in experiment [2].

On to `COc1cc(C(=O)NC[C@](O)(c2cc3c(c(-c4cc(Cl)c(F)cc4F)n2)OC[C@]3(C)C(N)=O)C(F)(F)F)cc2cc(Br)cnc12` [Example 621], for which the EC50 in experiment [1] (setting [3]) was under 200 nM; in experiment [2] it was under 500 nM.

`COc1cc(C(=O)NC[C@](O)(c2cc3c(c(-c4ccc(F)c(Cl)c4F)n2)OC[C@]3(C)C(N)=O)C(F)(F)F)cc2cn(C(F)F)nc12` [Example 551]: the figures for the EC50 in experiment [1] (setting [3]) and in experiment [2] were under 200 nM and under 500 nM, respectively.

Regarding `COc1cc(C(=O)NC[C@](O)(c2cc3c(c(-c4cc(Cl)ccc4F)n2)OC[C@]3(C)C(N)=O)C2(F)CC2)cc2cc(Cl)c(C)nc12` [Example 737], the figures for the EC50 in experiment [1] (setting [3]) and in experiment [2] were under 200 nM and under 500 nM, respectively.

For the molecule `COc1cc(C(=O)NC[C@](O)(c2cc3c(c(-c4cccc(F)c4Cl)n2)OC[C@]3(C)C(N)=O)C(F)(F)F)cc2cn(C3CC3)nc12` [Example 761], the figures for the EC50 in experiment [1] (setting [3]) and in experiment [2] were under 200 nM and under 500 nM, respectively.

With `COc1cc(-c2nc([C@](O)(CNC(=O)c3cc(OC)c4nn(C5CC5)cc4c3)C(F)(F)F)cc3c2OC[C@]3(C)C(N)=O)ccc1F` [Example 913], the values for the EC50 in experiment [1] (setting [4]) and in experiment [2] were over 200 nM and over 500 nM, respectively.

On to `COc1cc(C(=O)NC[C@](O)(c2cc3c(c(-c4ccc(C(F)(F)F)s4)n2)OC[C@]3(C)C(N)=O)C(F)(F)F)cc2cn(C3CC3)nc12` [Example 994], for which the EC50 in experiment [1] (setting [4]) was under 200 nM; in experiment [2], under 500 nM.

For the molecule `Cc1cnc2c(OC(F)F)cc(C(=O)NC[C@](O)(c3cc4c(c(-c5ccc(F)c(Cl)c5F)n3)OC[C@]4(C)C(N)=O)C3(F)CC3)cc2c1` [Example 753], the EC50 is under 200 nM in experiment [1] (setting [3]) and under 500 nM in experiment [2].

As to `C[C@]1(C(N)=O)COc2c1cc([C@@](O)(CNC(=O)c1ccc3nn(C4CC4)cc3c1)C1CC1)nc2-c1ccc(F)c(Cl)c1` [Example 815], the EC50 in experiment [1] (setting [3]) is under 200 nM; in experiment [2], under 500 nM.

For the molecule `C[C@]1(C(N)=O)COc2c1cc([C@@](O)(CNC(=O)c1cc(Cl)c3nn(C4CC4)cc3c1)C(F)(F)F)nc2-c1cccc(F)c1Cl` [Example 1119], the EC50 in experiment [1] (setting [4]) is under 200 nM; in experiment [2], under 500 nM.

As to `COc1cc(C(=O)NC[C@](O)(c2cc3c(c(-c4ccc5nc(C)ccc5c4)n2)OC[C@]3(C)C(N)=O)C(F)(F)F)cc2cn(C3CC3)nc12` [Example 967], the EC50 in experiment [1] (setting [4]) was over 200 nM; in experiment [2] it was over 500 nM.

With `C[C@]1(C(N)=O)COc2c1cc([C@@](O)(CNC(=O)c1ccc3nn(C4CC4)cc3c1)C1CC1)nc2-c1ccc2c(c1)OC(F)(F)O2` [Example 831], the EC50 was under 200 nM in experiment [1] (setting [4]) and under 500 nM in experiment [2].

`COc1cc(C(=O)NC[C@](O)(c2cc3c(c(-c4ccc(F)cc4)n2)OC[C@]3(C)C(N)=O)C2CCCC2)cc2cn(C3CC3)nc12` [Example 644]: the values for the EC50 in experiment [1] (setting [3]) and in experiment [2] were over 200 nM and over 500 nM, respectively.

`COc1ncc2cc(C(=O)NC[C@](O)(c3cc4c(c(-c5ccc(F)cc5)n3)OC[C@]4(C)C(N)=O)C(F)(F)F)cc(OC)c2n1` [Example 1143]: the EC50 was under 200 nM in experiment [1] (setting [4]) and over 500 nM in experiment [2].

For the molecule `Cc1cnc2c(Cl)cc(C(=O)NC[C@](O)(c3cc4c(c(-c5ccc(C(F)(F)F)cc5)n3)OC[C@]4(C)C(N)=O)C3CC3)cc2c1` [Example 798], the EC50 in experiment [1] (setting [3]) is under 200 nM; in experiment [2] it was under 500 nM.

On to `COc1cc(C(=O)NC[C@](O)(c2cc3c(c(-c4ccc(F)c(Br)c4F)n2)OC[C@]3(C)C(N)=O)C2CC2)cc2cn(C3CC3)nc12` [Example 799], for which the EC50 in experiment [1] (setting [3]) was under 200 nM; in experiment [2], under 500 nM.

With `COc1cc(C(=O)NC[C@](O)(c2cc3c(c(-c4cnc(C#N)c(Cl)c4)n2)OC[C@]3(C)C(N)=O)C(F)(F)F)cc2cn(C(F)F)nc12` [Example 582], the results for the EC50 in experiment [1] (setting [3]) and in experiment [2] were under 200 nM and over 500 nM, respectively.

For the molecule `COc1cc(C(=O)NC[C@](O)(c2cc3c(c(-c4ccc(F)c(Cl)c4)n2)OC[C@]3(C(N)=O)C(F)F)C(F)(F)F)cc2cn(C3CC3)nc12` [Example 1002], the EC50 in experiment [1] (setting [4]) is over 200 nM; in experiment [2], over 500 nM.

In the case of `COc1cc(C(=O)NC[C@](O)(c2cc3c(c(-c4ccc(F)c(F)c4F)n2)OC[C@]3(C)C(N)=O)C(F)(F)F)cc2cc(C(F)(F)F)cnc12` [Example 512], the values for the EC50 in experiment [1] (setting [3]) and in experiment [2] were under 200 nM and over 500 nM, respectively.

Turning to `C[C@]1(C(N)=O)COc2c1cc([C@@](O)(CNC(=O)c1cc(Cl)c3nn(C4CC4)cc3c1)C1(F)CC1)nc2-c1cc(Cl)c(F)cc1F` [Example 759], the EC50 is under 200 nM in experiment [1] (setting [3]) and under 500 nM in experiment [2].

For `COc1cc(C(=O)NC[C@](O)(c2cc3c(c(-c4cc(F)c(F)cc4F)n2)OC[C@]3(C)C(N)=O)C(F)(F)F)cc2cn(C(F)F)nc12` [Example 1136], the EC50 in experiment [1] (setting [4]) is under 200 nM; in experiment [2] it was under 500 nM.

Regarding `COc1cc(C(=O)NC[C@](O)(c2nc(-c3ccc(F)cc3)c3c(c2F)[C@](C)(C(N)=O)CO3)C(F)(F)F)cc2cc(Cl)c(C)nc12` [Example 854], the EC50 in experiment [1] (setting [4]) was over 200 nM; in experiment [2] it was over 500 nM.

For the molecule `COc1cc(C(=O)NC[C@](O)(c2cc3c(c(-c4ccc(F)c(Cl)c4F)n2)OC[C@]3(C)C(N)=O)C2CC2)cc2cn(C3CC3)nc12` [Example 554], the EC50 in experiment [1] (setting [3]) is under 200 nM; in experiment [2], under 500 nM.

For the molecule `COc1cc(C(=O)NC[C@](O)(c2cc3c(c(-c4ccc5c(c4)OC(F)(F)O5)n2)OC[C@]3(C)C(N)=O)C2CC2)ccc1OC1CC1` [Example 830], the EC50 in experiment [1] (setting [4]) was under 200 nM; in experiment [2] it was under 500 nM.

`C[C@]1(C(N)=O)COc2c1cc([C@@](O)(CNC(=O)c1cc(OCC3CC3)c3nn(C4(F)CC4)cc3c1)C(F)(F)F)nc2-c1ccc(F)cc1` [Example 877]: the figures for the EC50 in experiment [1] (setting [4]) and in experiment [2] were under 200 nM and under 500 nM, respectively.

As for `C[C@]1(C(N)=O)COc2c1cc([C@@](O)(CNC(=O)c1cc(Cl)c3nn(C4CC4)cc3c1)C1CC1)nc2-c1ccc(F)c(F)c1Cl` [Example 564], the figures for the EC50 in experiment [1] (setting [3]) and in experiment [2] were under 200 nM and under 500 nM, respectively.

As to `COc1cc(C(=O)NC[C@](O)(c2cc3c(c(-c4ccc(F)c(Cl)c4)n2)OC[C@]3(C)C(N)=O)C2(F)CC2)cc2cn(C(F)F)nc12` [Example 721], the EC50 in experiment [1] (setting [3]) was under 200 nM; in experiment [2] it was over 500 nM.

With `CNC(=O)[C@@]1(C)COc2c1cc([C@@](O)(CNC(=O)c1cc(OC)c3nn(C(F)F)cc3c1)C(F)(F)F)nc2-c1ccc(F)cc1` [Example 1191], the EC50 in experiment [1] (setting [4]) is under 200 nM; in experiment [2], under 500 nM.

As for `CC[C@]1(C(N)=O)COc2c1cc([C@@](O)(CNC(=O)c1cc(OC)c3nn(C4CC4)cc3c1)C(F)(F)F)nc2-c1ccc(F)cc1` [Example 573], the EC50 in experiment [1] (genotype A “Long” strain RSV, read-out: Human RSV-A (“Long”)) was under 200 nM; in experiment [2], under 500 nM.

On to `C[C@]1(C(N)=O)COc2c1cc([C@@](O)(CNC(=O)c1cc(F)c3nn(C4CC4)cc3c1)C1CC1)nc2-c1csc2c(F)cccc12` [Example 608], for which the EC50 in experiment [1] (setting [3]) was under 200 nM; in experiment [2], under 500 nM.

As to `COc1ccc(C(=O)NC[C@](O)(c2cc3c(c(-c4ccc(F)cc4)n2)OC[C@]3(C)C(N)=O)C(F)(F)F)cc1NC(=O)NC1CC1` [Example 625], the EC50 was under 200 nM in experiment [1] (setting [3]) and over 500 nM in experiment [2].

Consider `COc1cc(C(=O)NC[C@](O)(c2cc3c(c(-c4ccc(F)c(Cl)c4)n2)OC[C@@]3(C(N)=O)C(F)F)C(F)(F)F)cc2sc(C3CC3)nc12` [Example 1017], for which the EC50 was under 200 nM in experiment [1] (setting [4]) and under 500 nM in experiment [2].

Consider `COc1cc(C(=O)NC[C@](O)(c2cc3c(c(-c4csc5c(F)cccc45)n2)OC[C@]3(C)C(N)=O)C(F)(F)F)cc2cn(C3CC3)nc12` [Example 936], for which the results for the EC50 in experiment [1] (setting [4]) and in experiment [2] were under 200 nM and under 500 nM, respectively.
